For two compounds, Activity results are on record in ChEMBL document CHEMBL2074441, “Identification of breast cancer resistant protein/mitoxantrone resistance/placenta-specific, ATP-binding cassette transporter as a transporter of NB-506 and J-107088, topoisomerase I inhibitors with an indolocarbazole structure” (Cancer Res, 2001).

Series [1] deals with T1, Broad substrate specificity ATP-binding cassette transporter ABCG2 (Mus musculus, UniProt Q7TMS5).
T1 sequence (Q7TMS5 whole entry): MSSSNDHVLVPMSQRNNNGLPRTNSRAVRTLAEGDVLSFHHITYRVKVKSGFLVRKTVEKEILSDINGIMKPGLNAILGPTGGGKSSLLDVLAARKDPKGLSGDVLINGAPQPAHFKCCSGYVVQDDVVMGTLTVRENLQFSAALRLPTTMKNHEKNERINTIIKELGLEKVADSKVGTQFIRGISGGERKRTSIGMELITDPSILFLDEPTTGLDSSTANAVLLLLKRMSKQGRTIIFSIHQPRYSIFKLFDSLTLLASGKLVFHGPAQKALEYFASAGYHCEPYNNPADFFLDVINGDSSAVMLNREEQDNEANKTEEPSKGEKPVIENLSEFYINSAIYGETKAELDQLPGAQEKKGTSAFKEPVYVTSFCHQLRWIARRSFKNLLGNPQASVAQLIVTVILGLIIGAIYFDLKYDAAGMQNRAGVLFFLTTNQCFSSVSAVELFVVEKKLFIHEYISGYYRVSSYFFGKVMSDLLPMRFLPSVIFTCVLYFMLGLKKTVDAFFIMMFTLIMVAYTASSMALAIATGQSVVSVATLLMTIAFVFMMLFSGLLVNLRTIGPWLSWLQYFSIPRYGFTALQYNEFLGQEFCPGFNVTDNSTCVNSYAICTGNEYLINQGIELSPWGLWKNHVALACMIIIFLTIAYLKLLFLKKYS
Kind of series: TP_TRANSPORTER: intracellular accumulation in LY and LY/NR2 cells. It is filed as functional, cell-based.

In series [2] the target is T2, Broad substrate specificity ATP-binding cassette transporter ABCG2 (Homo sapiens, UniProt Q9UNQ0).
T2 sequence (Q9UNQ0 whole entry): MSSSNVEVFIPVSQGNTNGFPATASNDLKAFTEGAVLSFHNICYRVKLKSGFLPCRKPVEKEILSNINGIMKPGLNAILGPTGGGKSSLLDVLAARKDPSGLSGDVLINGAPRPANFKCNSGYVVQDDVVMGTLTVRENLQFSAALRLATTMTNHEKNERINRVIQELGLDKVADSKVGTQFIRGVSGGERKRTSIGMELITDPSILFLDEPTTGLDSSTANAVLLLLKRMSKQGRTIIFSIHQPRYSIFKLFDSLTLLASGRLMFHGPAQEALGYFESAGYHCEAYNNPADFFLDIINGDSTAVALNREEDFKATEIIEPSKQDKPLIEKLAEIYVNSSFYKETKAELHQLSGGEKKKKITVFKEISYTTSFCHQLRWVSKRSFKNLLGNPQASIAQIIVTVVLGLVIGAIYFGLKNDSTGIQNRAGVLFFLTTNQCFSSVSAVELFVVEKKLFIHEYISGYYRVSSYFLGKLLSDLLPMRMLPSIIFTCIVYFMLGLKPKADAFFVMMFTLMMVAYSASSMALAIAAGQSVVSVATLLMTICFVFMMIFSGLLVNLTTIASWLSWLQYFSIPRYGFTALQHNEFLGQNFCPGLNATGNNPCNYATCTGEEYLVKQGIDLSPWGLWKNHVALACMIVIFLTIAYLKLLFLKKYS
Kind of series: TP_TRANSPORTER: intracellular accumulation in BCRP-transfected PC-13 cells. It is filed as functional, cell-based.

As for `O=CNN1C(=O)c2c(c3c4cccc(O)c4n([C@@H]4O[C@H](CO)[C@@H](O)[C@H](O)[C@H]4O)c3c3[nH]c4c(O)cccc4c23)C1=O`, in series [1], the Activity result is “substrate [+]”.
In the case of `O=C1c2c(c3c4ccc(O)cc4n([C@@H]4O[C@H](CO)[C@@H](O)[C@H](O)[C@H]4O)c3c3[nH]c4cc(O)ccc4c23)C(=O)N1NC(CO)CO` [EDOTECARIN], in series [2], the Activity result was “substrate [+]”.
